Columns and labels:
[1] = tested on: style-specific S RNase of Fuji apple; test: Inhibition of the activity of a style-specific S RNase by the agents; type: biochemical; conditions: for inhibiting effect for a style-specific S RNase: enzyme assay, result in words; for OD (2.0 mM): optical density at 260 nm (A260), agent 2.0 mM, no treatment 1.10
Description: Inhibition of S RNase activity by an agent of the present invention was measured as follows: The standard solution of 500 μL of 10 mM sodium phosphate (pH 7.0) with an agent (2.0 mM), and 500 μL of torula yeast rRNA (5 mg/mL) was pre-incubated for 10 min at 37° C. To the substrate solution, the 20 μL of the style-specific S RNase (200 ng) of Fuji apple was added, then the solution was incubated for 30 min at 37° C. A fraction of 200 μL was collected and 40 μL of stop buffer (ice-cold 25% HCIO4, 0.75% uranyl acetate) was added, then mixed and centrifuged at 12,000 rpm for 5 min. And 50 μL of the supernatant was diluted with 950 μL of dd H2O, then the solution was centrifuged and measured the optical density at 260 nm (A260) (Singh A. et al., Plant Physilolgy, 96: 61-68,1991).

[2] = tested on: Hongro apple; test: Breakdown of the self-incompatibility in Hongro apple (self-pollination rate, field); type: in vivo; conditions: 25 days after the treatment
Description: In the field application experiment, Hongro apple (the Rosaceae) which has a very low self-pollination rate (<5%) was isolated single-genetically by covering up whole plants with a fine-meshed net to exclude any pollinating insects. The agent of the present invention was treated enough to get-wet flowers at various concentrations with a micro-spray at 9:00-11:00 AM. The target of the agent was the first-blooming primary apple flower. The self-pollination rate was investigated 25 days after the treatment and compared with no treatment and artificial cross-pollination.

Molecule	OD (2.0 mM) [1]	other results
O=S(=O)([O-])[O-].[Ca+2] [CaSO4, reference compound]		inhibiting effect for a style-specific S RNase [1]: didn't show any positive inhibiting effect
COCCOCC(=O)[O-].COCCOCC(=O)[O-].[Cu+2] [Cu(II) 2-(2-methoxyethoxy) acetate]		self-pollination rate ([2]; concentration 0.01 mM): >10%; self-pollination rate ([2]; concentration 0.03 mM): >30%; self-pollination rate ([2]; concentration 0.10 mM): >50%; self-pollination rate ([2]; concentration 0.30 mM): >50%; self-pollination rate ([2]; concentration 1.0 mM): >50%
COCCOC(C)C(=O)[O-].COCCOC(C)C(=O)[O-].[Cu+2] (stereo not shown) [Cu(II) 2-(2-methoxyethoxy)propionate, Cu(II) 2-(2-methoxyethoxy) propionate]	0.64	
CCCOCCOCCOCC(=O)[O-].CCCOCCOCCOCC(=O)[O-].[Cu+2] [Cu(II) 2-(2-propoxyethoxy)ethoxyacetate, Cu(II) 2-(2-propoxyethoxy) ethoxyacetate]	0.67	
COC(C)C(=O)[O-].COC(C)C(=O)[O-].[Cu+2] (stereo not shown) [Cu(II) 2-methoxypropionate]	0.72	
CCCOC(C)C(=O)[O-].CCCOC(C)C(=O)[O-].[Cu+2] (stereo not shown) [Cu(II) 2-propoxypropionate]	0.72	
COCCOCCOCC(=O)[O-].COCCOCCOCC(=O)[O-].[Cu+2] [Cu(II) 2-{2-(2-methoxyethoxy)ethoxy} acetate]		self-pollination rate ([2]; concentration 0.01 mM): >10%; self-pollination rate ([2]; concentration 0.03 mM): >20%; self-pollination rate ([2]; concentration 0.10 mM): >50%; self-pollination rate ([2]; concentration 0.30 mM): >50%; self-pollination rate ([2]; concentration 1.0 mM): >50%
COCCOCCOC(C)C(=O)[O-].COCCOCCOC(C)C(=O)[O-].[Cu+2] (stereo not shown) [Cu(II) 2-{2-(2-methoxyethoxy)ethoxy} propionate]	0.61	
COCCOCCOCCOCC(=O)[O-].COCCOCCOCCOCC(=O)[O-].[Cu+2] [Cu(II) 2-{2-(2-methoxyethoxy)ethoxy}ethoxyacetate]	0.66	
CCOCCOc1ccc(S(=O)(=O)[O-])cc1.CCOCCOc1ccc(S(=O)(=O)[O-])cc1.[Cu+2] [Cu(II) 4-(2-ethoxyethoxy) benzene sulfonate]	0.72	
COCCOCCOc1ccc(S(=O)(=O)[O-])cc1.COCCOCCOc1ccc(S(=O)(=O)[O-])cc1.[Cu+2] [Cu(II) 4-{2-(2-methoxyethoxy)ethoxy} benzene sulfonate]	0.68	
CC(=O)[O-].CC(=O)[O-].[Cu+2] [Cu(II) Acetate]	0.70	
C=CC(=O)[O-].C=CC(=O)[O-].[Cu+2] [Cu(II) Acrylate]	0.69	
O=S(=O)([O-])c1ccccc1.O=S(=O)([O-])c1ccccc1.[Cu+2] [Cu(II) Benzene sulfonate]	0.72	
CCCC(=O)[O-].CCCC(=O)[O-].[Cu+2] [Cu(II) Butyrate]	0.69	
C[C@H](O)C(=O)[O-].C[C@H](O)C(=O)[O-].[Cu+2] [Cu(II) L-lactate]	0.72	
CCOCC(=O)[O-].CCOCC(=O)[O-].[Cu+2] [Cu(II) ethoxyacetate]	0.72	
COCC(=O)[O-].COCC(=O)[O-].[Cu+2] [Cu(II) methoxyacetate]	0.72	
Cc1ccc(S(=O)(=O)[O-])cc1.Cc1ccc(S(=O)(=O)[O-])cc1.[Cu+2] [Cu(II) p-toluene sulfonate]	0.72	
CCCOCC(=O)[O-].CCCOCC(=O)[O-].[Cu+2] [Cu(II) propoxyacetate]	0.73	
O=C[O-].O=C[O-].[Cu+2] [Cu(Il) Formate]	0.74	
O=S(=O)([O-])[O-].[K+].[K+] [K2SO4, reference compound]		inhibiting effect for a style-specific S RNase [1]: didn't show any positive inhibiting effect
O=S(=O)([O-])[O-].[Li+].[Li+] [Li2SO4, reference compound]		inhibiting effect for a style-specific S RNase [1]: didn't show any positive inhibiting effect

Molecule	OD (2.0 mM) [1]	other results
O=S(=O)([O-])[O-].[Na+].[Na+] [Na2SO4, reference compound]		inhibiting effect for a style-specific S RNase [1]: didn't show any positive inhibiting effect
COCCOC(C)C(=O)[O-].COCCOC(C)C(=O)[O-].[Zn+2] (stereo not shown) [Zn(II) 2-(2-methoxyethoxy)propionate, Zn(II) 2-(2-methoxyethoxy) propionate]	0.61	
CCCOCCOCCOCC(=O)[O-].CCCOCCOCCOCC(=O)[O-].[Zn+2] [Zn(II) 2-(2-propoxyethoxy)ethoxyacetate, Zn(II) 2-(2-propoxyethoxy) ethoxyacetate]	0.69	
CCOCCOCC(=O)[O-].CCOCCOCC(=O)[O-].[Zn+2] [Zn(II) 2-ethoxy ethoxy acetate]		self-pollination rate ([2]; concentration 0.01 mM): >5%; self-pollination rate ([2]; concentration 0.03 mM): >20%; self-pollination rate ([2]; concentration 0.10 mM): >50%; self-pollination rate ([2]; concentration 0.30 mM): >60%; self-pollination rate ([2]; concentration 1.0 mM): >60%
COC(C)C(=O)[O-].COC(C)C(=O)[O-].[Zn+2] (stereo not shown) [Zn(II) 2-methoxypropionate]	0.73	
CCCOC(C)C(=O)[O-].CCCOC(C)C(=O)[O-].[Zn+2] (stereo not shown) [Zn(II) 2-propoxypropionate]	0.72	
COCCOCCOCC(=O)[O-].COCCOCCOCC(=O)[O-].[Zn+2] [Zn(II) 2-{2-(2-methoxyethoxy)ethoxy} acetate]		self-pollination rate ([2]; concentration 0.01 mM): >10%; self-pollination rate ([2]; concentration 0.03 mM): >30%; self-pollination rate ([2]; concentration 0.10 mM): >50%; self-pollination rate ([2]; concentration 0.30 mM): >50%; self-pollination rate ([2]; concentration 1.0 mM): >50%
COCCOCCOCCOCC(=O)[O-].COCCOCCOCCOCC(=O)[O-].[Zn+2] [Zn(II) 2-{2-(2-methoxyethoxy)ethoxy} ethoxyacetate]	0.67	
COCCOCCOC(C)C(=O)[O-].COCCOCCOC(C)C(=O)[O-].[Zn+2] (stereo not shown) [Zn(II) 2-{2-(2-methoxyethoxy)ethoxy}propionate]	0.62	
CCOCCOc1ccc(S(=O)(=O)[O-])cc1.CCOCCOc1ccc(S(=O)(=O)[O-])cc1.[Zn+2] [Zn(II) 4-(2-ethoxyethoxy) benzene sulfonate]	0.72	
COCCOCCOc1ccc(S(=O)(=O)[O-])cc1.COCCOCCOc1ccc(S(=O)(=O)[O-])cc1.[Zn+2] [Zn(II) 4-{2-(2-methoxyethoxy)ethoxy}benzene sulfonate]	0.68	
CC(=O)[O-].CC(=O)[O-].[Zn+2] [Zn(II) Acetate]	0.71	
O=S(=O)([O-])c1ccccc1.O=S(=O)([O-])c1ccccc1.[Zn+2] [Zn(II) Benzene sulfonate]	0.74	
CCCC(=O)[O-].CCCC(=O)[O-].[Zn+2] [Zn(II) Butyrate]	0.68	
O=C[O-].O=C[O-].[Zn+2] [Zn(II) Formate]	0.75	
C[C@H](O)C(=O)O.C[C@H](O)C(=O)O.[Zn] [Zn(II) L-lactate]	0.73	
CCOCC(=O)[O-].CCOCC(=O)[O-].[Zn+2] [Zn(II) ethoxyacetate]	0.73	
C=C(C)C(=O)[O-].C=C(C)C(=O)[O-].[Zn+2] [Zn(II) metacrylate]	0.70	
COCC(=O)[O-].COCC(=O)[O-].[Zn+2] [Zn(II) methoxyacetate]	0.71	
Cc1ccc(S(=O)(=O)[O-])cc1.Cc1ccc(S(=O)(=O)[O-])cc1.[Zn+2] [Zn(II) p-toluene sulfonate]	0.72	
CCCOCC(=O)[O-].CCCOCC(=O)[O-].[Zn+2] [Zn(II) propoxyacetate]	0.75	
Ce2SO4 [reference compound]		inhibiting effect for a style-specific S RNase [1]: didn't show any positive inhibiting effect

Source: patent US20050032646A1, “Agents for the regulation of gametophytic self-incompatibility and a control method for the breakdown of gametophytic self-incompatibility using the agents” (priority 2002, published 2005)
